The structures appear in SMILES notation.

Assay type in all cases: functional
Experiment [1] deals with Myzus persicae. The experiment can be described thus: Anti-settling activity against Myzus persicae (green peach aphid) in compound treated bell pepper leaf assessed as preference index at 50 ug/cm'2 measured 24 hr.
The test system of experiment [2] is Myzus persicae. The experiment can be described thus: Anti-settling activity against Myzus persicae (green peach aphid) in compound treated bell pepper leaf assessed as aphids settled on leaf at 50 ug/cm'2 measured 24 hr (reference value: 52 +/- 7 to 75 +/- 4%).
The subject of experiment [3] is Rhopalosiphum padi. The experiment can be described thus: Anti-settling activity against Rhopalosiphum padi in compound treated barley [Hordeum vulgare L. (Poaceae)] foliage leaf assessed as preference index at 50 ug/cm'2 measured 24 hr.
For experiment [4], the system named is Rhopalosiphum padi. The experiment can be described thus: Anti-settling activity against Rhopalosiphum padi in compound treated barley [Hordeum vulgare L. (Poaceae)] foliage leaf assessed as aphids settled on leaf at 50 ug/cm'2 measured 24 hr (reference value: 55 +/- 4 to 90 +/- 3%).

Turning to `COc1c(O)cc(O)c2c(=O)cc(-c3ccc(O)cc3)oc12` [4'-HYDROXYWOGONIN], the Ratio in the experiment on Myzus persicae [1] was found to be 0; in the experiment on Rhopalosiphum padi [3], 0.1. The Activity came to 48% in the experiment on Myzus persicae [2] and 44% in the experiment on Rhopalosiphum padi [4].

As for `COc1ccc(-c2cc(=O)c3c(O)cc(O)cc3o2)cc1` [ACACETIN], the values for the Ratio in the experiment on Myzus persicae [1] and in the experiment with Rhopalosiphum padi [3] were 0.1 and 0.3, respectively. In addition, the Activity worked out at 44% in the experiment on Myzus persicae [2] and 34% in the experiment on Rhopalosiphum padi [4].

`COc1ccc(-c2cc(=O)c3c(O)cc(O)c(OC)c3o2)cc1` [GALANGUSTIN]: the results for the Ratio with Myzus persicae [1] and with Rhopalosiphum padi [3] were 0.4 and 0.8, respectively. The Activity was 29% with Myzus persicae [2] and 10% with Rhopalosiphum padi [4].

The values are drawn from ChEMBL document CHEMBL3046379, “Differential activity against aphid settling of flavones obtained from Clytostoma callistegioides (Bignoniaceae)” (2013).
